From patent US12024571B2, “Anti-erythropoietin receptor peptide” (Epo-Med Inc., priority 2018, dated 2024) come the findings set out here.

Bridge positions count the residues as written; N and C are the ends. Square brackets hold non-standard residues; d marks the D form. Peptide text beside a SMILES is read from it. * marks the point of attachment. Ala(benzothiazol-2-yl) = N[C@@H](Cc1nc2ccccc2s1)C(=O)O; Phe(3,4-F2) = N[C@@H](Cc1ccc(F)c(F)c1)C(=O)O; Phe(3-Cl) = N[C@@H](Cc1cccc(Cl)c1)C(=O)O; Phe(4-Cl) = N[C@@H](Cc1ccc(Cl)cc1)C(=O)O; Phe(4-F) = N[C@@H](Cc1ccc(F)cc1)C(=O)O; Propionyl = CCC(=O)*

For experiment [1], the system named is human liver cancer derived HepG2 cells. The experiment in a line: Lethal effect of synthetic peptides on HepG2 cells (Trypan blue positive cell count). It counts as cell-based. The following applies: 120, 60, 30 or 15 μM, 24 hours; FIGS. 34 to 37.
For experiment [2], the system named is human liver cancer HepG2 cells. The experiment in a line: Granule leakage of HepG2 cells exposed to peptides, under a microscope. In kind it is cell-based. The following applies: HepG2 cells exposed to peptide. The text has this:
The peptides synthesized above were exposed to human liver cancer HepG2 cells and the leakage of granules under a microscope was studied. […] In view of the above, peptides GT-11258, GT-11261, and GT-11274 were expected to have a relatively strong activity.

Experiment [3] relates to human T cell leukemia derived ATL-2 cells. Description: ATL-2 cell proliferation, WST assay. The following applies: 150 μM, 72 hours, FIG. 39. It counts as cell-based. As for the experimental part:
Human T cell leukemia derived ATL-2 cells (provided by Dr. Maeda at the Kyoto University) were passaged (twice/week) under the condition of 37° C. and 5% CO2-95% air using an RPMI-1640 medium (Sigma, R8758-500 mL) comprising 10% fetal bovine serum (biowest, S182H-500). The ATL-2 cells were collected from a culture flask. The cells were suspended in the medium and then seeded on a 96-well microplate (3×10^3/0.05 mL/well). After culturing the cells overnight, a medium comprising the test compounds (total of 32 compounds, final concentration of 150 μM) was added (0.05 mL/well, 3 wells/test compound). After 72 hours, the cell proliferation capability for each well was measured by a WST assay (DOJINDO LABORATORIES, Cell Counting Kit-8), and the inhibition ratio for each test compound against the control (test compound-free well) was calculated.

In experiment [4] the test system is human pancreatic cancer derived AsPC-1 cells. The experiment in a line: AsPC-1 cell proliferation, WST assay. The conditions noted are these: 72 hours. It counts as cell-based. As for the experimental part: Human pancreatic cancer derived AsPC-1 cells (ECACC, 96020930) were passaged (twice/week) under the condition of 37° C. and 5% CO2-95% air using an RPMI-1640 medium (Sigma, R8758-500 ML) comprising 10% fetal bovine serum (biowest, S182H-500) and 1 mM sodium pyruvate (gibco, 11360-070). The AsPC-1 cells were collected from a culture dish using 0.05% trypsin-0.02% EDTA solution (Sigma, T4174-100 ML). The cells were suspended in the medium and then seeded on a 96-well microplate (3×10^3/0.05 mL/well). After culturing the cells overnight, a medium comprising the test compounds (total of 43 compounds, final concentration of 150 μM) was added (0.05 mL/well, 3 wells/test compound). After 72 hours, the cell proliferation capability for each well was measured by a WST assay (DOJINDO LABORATORIES, Cell Counting Kit-8), and the inhibition ratio for each test compound against the control (test compound-free well) was calculated.
A WST assay is a viable cell count measuring method, which uses water-soluble tetrazolium salt WST-8 as a coloring reagent and uses water-soluble formazan generated by reduction of WST-8 as an indicator of viable cell count. NADH produced by a dehydrogenase in a cell converts WST-8 to water-soluble formazan. Since the generated water-soluble formazan has the maximum absorbance at about 450 nm, the viable cell count is indicated by measuring the absorbance at such a wavelength region.
Human pancreatic cancer derived AsPC-1 cells (ECACC, 96020930) were cultured, collected, and seeded on a 96-well microplate (3×10^3/0.05 mL/well) in the same manner as Example 3. After culturing the cells overnight, a medium comprising the test compounds (10, 30, or 100 μM) was added (0.05 mL/well, 3 wells/test compound). After 72 hours, the cell proliferation capability for each well was measured by a WST assay (DOJINDO LABORATORIES, Cell Counting Kit-8), and the inhibition ratio for each test compound against the control (test compound-free well) was computed.

For experiment [5] the test system is unchanged. Description: Tumor growth in AsPC-1 cancer-bearing nude mouse model. In kind it is in vivo. The conditions noted are these: intraperitoneal, 3 times daily, total 0.2 mg/day, 3 times a week for 2 weeks; FIG. 40. As for the experimental part:
Human pancreatic cancer derived AsPC-1 cells (ECACC, 96020930) were cultured and collected in the same manner as Example 3, suspended in the RPMI-1640 medium described above comprising 10% Matrigel (BD Bioscience, 354234), and transplanted subcutaneously to the right side on the back of a 6-week-old male nude mouse (SLC, BALB/cSlc-nu/nu) (5×10^6/0.1 mL/mouse). The length (L) and width (W) of the tumor were measured using a digital caliper. When the tumor volume (V) calculated from the formula V=L×W^2/2 reached about 150 to 200 mm^3, the mice were separated into groups and administered with test compounds (total of 8 compounds including GT-11263). Saline was administered to a control group. The compounds were administered intraperitoneally (0.1 mL/mouse, 3 to 5 mice/test compound) 3 times daily (one hour interval, a total of 0.2 mg/day), 3 times a week for 2 weeks. The tumor size and body weight were measured twice a week to monitor the status of tumor growth and the effect of the administration of test compounds.
In the same manner as Example 5, human pancreatic cancer derived AsPC-1 cells were transplanted subcutaneously to the right side on the back of a 6-week-old male nude mouse (SLC, BALB/cSlc-nu/nu) (5×10^6/0.1 mL/mouse). The length (L) and width (W) of the tumor were measured using a digital caliper. When the tumor volume (V) calculated from the formula V=L×W^2/2 reached about 150 to 200 mm^3, the mice were separated into groups and administered with test compounds (GT-11269, GT-11309, and GT-11350). Saline was administered to a control group. The compounds were administered intraperitoneally (0.1 mL/mouse, 5 mice/test compound) 3 times daily (one hour interval, a total of 0.5 mg/day), twice a week for 4 weeks. The tumor size and body weight were measured twice a week to monitor the effect of the administration of test compounds (FIG. 45).
(§1) In the same manner as Example 5, human pancreatic cancer derived AsPC-1 cells were transplanted subcutaneously to the right side on the back of a 6-week-old male nude mouse (SLC, BALB/cSlc-nu/nu), and when the tumor volume (V) reached about 150 to 200 mm^3, the mice were separated into groups and administered with test compounds (GT-11350). Saline was administered to a control group. The compounds were administered intraperitoneally (0.1 mL/mouse) 3 times daily (one hour interval, a total of 0.1 mg, 0.2 mg, or 0.4 mg/day), twice a week for 4 weeks. The tumor size and body weight were measured twice a week to monitor the effect of the dose of test compounds (FIG. 49).
as §1, with “of” for “of 0.1 mg,”, “mg/day)” for “mg,”, “once daily (0.2” for “0.4”, “administration” for “dose”, “compounds.” for “compounds (FIG. 49).”

For the compound “Ac-kcvwtlGGfhcs-NH2 (Ac-[dK][dC][dV][dW][dT][dL]GG[dF][dH][dC][dS]-NH2; disulfide 2-11 (inferred)) [GT-11280]”, the “HepG2 cell killing effect compared with YS12 (Trypan blue positive cells per 1 mm^2)” value in experiment [1] is “equivalent or greater than that of YS12”. As for “Ac-SCH(m-chloro-Phe)GPLTWVCK-NH2 (Ac-SCH[Phe(3-Cl)]GPLTWVCK-NH2; disulfide 2-11 (inferred)) [GT-11260]”, the “HepG2 cell killing effect compared with YS12 (Trypan blue positive cells per 1 mm^2)” value in experiment [1] is listed as “equivalent or greater than that of YS12”. The “leakage of granules under a microscope” value in experiment [2] is “relatively low degree of granule leakage”.

For “Ac-SCHYGPLT(2-quinolylalanine)VCK-NH2 (Ac-SCHYGPLT[2‑quinolylalanine]VCK-NH2; disulfide 2-11 (inferred)) [GT-11308]”, in experiment [1], the “HepG2 cell killing effect compared with YS12 (Trypan blue positive cells per 1 mm^2)” value is “equivalent or greater than that of YS12”. In addition, the “proliferation inhibiting action on ATL-2 cells (inhibition ratio against control)” value in experiment [3] was “potent proliferation inhibiting action”. As to “Ac-SCHFGPATWVCK-NH2 (disulfide 2-11 (inferred)) [GT-11268]”, the “HepG2 cell killing effect compared with YS12 (Trypan blue positive cells per 1 mm^2)” value in experiment [1] is “equivalent or greater than that of YS12”. For the compound “Ac-SCHYGPLTWVCK-NH2 (disulfide 2-11 (inferred)) [GT-11261]”, the “HepG2 cell killing effect compared with YS12 (Trypan blue positive cells per 1 mm^2)” value in experiment [1] is “equivalent or greater than that of YS12”. Also, the “leakage of granules under a microscope” value in experiment [2] was “significant granule leakage”. “Ac-SCH(p-fluoro-Phe)GPLT(2-benzothiazolylalanine)VCK-NH2 [GT-11307]”: the “HepG2 cell killing effect compared with YS12 (Trypan blue positive cells per 1 mm^2)” value in experiment [1] is on record as “equivalent or greater than that of YS12”. Turning to “(propionyl)-SCHFGPLTWVCK-NH2 (Propionyl-SCHFGPLTWVCK-NH2; disulfide 2-11 (inferred)) [GT-11257]”, in experiment [4] (150 μM, FIG. 38), the “proliferation inhibiting action on AsPC-1 cells (inhibition ratio against control)” value is given as “potent proliferation inhibiting action”. As to “Ac-SCH(p-fluoro-Phe)GPLTWVCK-NH2 (Ac-SCH[Phe(4-F)]GPLTWVCK-NH2; disulfide 2-11 (inferred)) [GT-11258]”, the “leakage of granules under a microscope” value in experiment [2] is recorded as “significant granule leakage”. Take `CSCC[C@@H]1NC(=O)[C@@H]2CCCN2C(=O)CNC(=O)[C@H](Cc2ccccc2)NC(=O)[C@H](Cc2c[nH]cn2)NC(=O)[C@@H](NC(=O)[C@H](CO)NC(C)=O)CSSC[C@@H](C(=O)N[C@@H](CCCCN)C(N)=O)NC(=O)[C@H](C(C)C)NC(=O)[C@H](Cc2c[nH]c3ccccc23)NC(=O)[C@H]([C@@H](C)O)NC1=O` [GT-11269, Ac-SCHFGPMTWVCK-NH2] (Ac-SCHFGPMTWVCK-NH2; disulfide 2-11): the “antitumor effect (relative tumor volume)” value in experiment [5] was “potent and had an early manifestation of effect”. Moreover, the “proliferation inhibiting action against AsPC-1 cells (inhibition ratio against control)” value in experiment [4] (10, 30 or 100 μM, FIG. 43) is given as “potent proliferation inhibiting action”. Moreover, the “proliferation inhibiting action on ATL-2 cells (inhibition ratio against control)” value in experiment [3] is reported as “potent proliferation inhibiting action”. On to “Ac-SCH(3,4-difluoro-Phe)GPLT(8-quinolylalanine)VCK-NH2 [GT-11303]”, for which the “HepG2 cell killing effect compared with YS12 (Trypan blue positive cells per 1 mm^2)” value in experiment [1] is recorded as “equivalent or greater than that of YS12”. On to “Ac-SCH(p-chloro-Phe)GPLTWVCK-NH2 (Ac-SCH[Phe(4-Cl)]GPLTWVCK-NH2; disulfide 2-11 (inferred)) [GT-11259]”, for which the “HepG2 cell killing effect compared with YS12 (Trypan blue positive cells per 1 mm^2)” value in experiment [1] was “equivalent or greater than that of YS12”. Also, in experiment [2], the “leakage of granules under a microscope” value is “relatively low degree of granule leakage”. Take “Ac-SCH(p-fluoro-Phe)GPLT(2-quinolylalanine)VCK-NH2 [GT-11306]”: the “HepG2 cell killing effect compared with YS12 (Trypan blue positive cells per 1 mm^2)” value in experiment [1] is reported as “equivalent or greater than that of YS12”.

For the compound “Ac-SCHFGPLT(8-quinolylalanine)VCK-NH2 (Ac-SCHFGPLT[8‑quinolylalanine]VCK-NH2; disulfide 2-11 (inferred)) [GT-11274]”, the “HepG2 cell killing effect compared with YS12 (Trypan blue positive cells per 1 mm^2)” value in experiment [1] was “equivalent or greater than that of YS12”. For the same compound, in experiment [2], the “leakage of granules under a microscope” value was “significant granule leakage”. “Ac-SCH(phenethylglycine)GPLTWVCK-NH2 (Ac-SCH[phenethylglycine]GPLTWVCK-NH2; disulfide 2-11 (inferred)) [GT-11263]”: the “antitumor effect (relative tumor volume)” value in experiment [5] is recorded as “potent antitumor effect”. As to “Ac-SCH(3,4-difluoro-Phe)GPLT(2-benzothiazolylalanine)VCK-NH2 (Ac-SCH[Phe(3,4-F2)]GPLT[Ala(benzothiazol-2-yl)]VCK-NH2; disulfide 2-11 (inferred)) [GT-11305]”, in experiment [1], the “HepG2 cell killing effect compared with YS12 (Trypan blue positive cells per 1 mm^2)” value is listed as “equivalent or greater than that of YS12”.

On to “Ac-SCH(3,4-difluoro-Phe)GPLT(2-quinolylalanine)VCK-NH2 [GT-11304]”, for which the “HepG2 cell killing effect compared with YS12 (Trypan blue positive cells per 1 mm^2)” value in experiment [1] was “equivalent or greater than that of YS12”.
